In brackets after ≈: the same amount, converted by molar mass. Each block holds one molecule with its values, some of them ahead of it.
Key:
Assay in all cases: ≥ marks a high value that may be exact or a test limit, other limits are often not marked, values filed in µg/mL are converted to µM
[1] = test system: Staphylococcus aureus ATCC 25923
[2] = test system: Proteus mirabilis ATCC 25933
[3] = test system: Staphylococcus epidermidis RP62A/1
[4] = test system: Candida albicans ATCC 90028
[5] = test system: Staphylococcus epidermidis RP62A
[6] = test system: Stenotrophomonas maltophilia
[7] = test system: Staphylococcus aureus ATCC 29213
[8] = test system: Pseudomonas aeruginosa ATCC 27853
[9] = test system: Acinetobacter baumannii
[10] = test system: Escherichia coli ATCC 25726
[11] = test system: Klebsiella pneumoniae ATCC 700603
[12] = test system: Escherichia coli IFO 12734
[13] = test system: Micrococcus luteus ATCC 9341
[14] = test system: Staphylococcus aureus IFO 12732
[15] = test system: Bacillus subtilis IFO 3513
[16] = test system: Bacillus subtilis ATCC 6633
[17] = test system: Escherichia coli ATCC 25922
[18] = test system: Candida albicans ATCC 20032
[19] = test system: Staphylococcus aureus ATCC 33591
[20] = test system: Staphylococcus aureus ATCC 700699
[21] = test system: Pseudomonas aeruginosa
[22] = test system: Escherichia coli JM109
[23] = test system: Staphylococcus aureus ATCC 6538P
[24] = test system: Staphylococcus aureus
[25] = test system: Escherichia coli UB1005
[26] = test system: Escherichia coli DC2
[27] = test system: Staphylococcus epidermidis C621
[28] = test system: Corynebacterium xerosis C875

MIC [12]: 6.55 µM (≈ 12.5 µg/mL) | MIC [13]: 0.4 µM (≈ 0.763 µg/mL) | MIC [14]: 0.818 µM (≈ 1.56 µg/mL) | MIC [15]: 0.818 µM (≈ 1.56 µg/mL)
Compound: CC[C@H](C)[C@H](NC(=O)[C@H](CC(C)C)NC(=O)[C@@H]1CCCN1C(=O)[C@H](Cc1c[nH]c2ccccc12)NC(=O)[C@H](CCCCN)NC(=O)[C@H](Cc1c[nH]c2ccccc12)NC(=O)[C@@H]1CCCN1C(=O)[C@H](Cc1c[nH]c2ccccc12)NC(=O)[C@H](Cc1c[nH]c2ccccc12)NC(=O)[C@@H]1CCCN1C(=O)[C@H](Cc1c[nH]c2ccccc12)NC(=O)[C@H](CCCN=C(N)N)NC(=O)[C@@H](N)CCCN=C(N)N)C(N)=O [RRWPWWPWKWPLI]

MIC [1]: 12.9 µM (≈ 37.5 µg/mL) | MIC [16]: ≥ 34.5 µM | MIC [17]: > 34.5 µM | MIC [18]: ≥ 34.5 µM
Compound: CC[C@H](C)[C@H](NC(=O)[C@H](CCCCN)NC(=O)[C@H](C)NC(=O)CNC(=O)[C@@H](NC(=O)[C@@H](N)CO)[C@@H](C)CC)C(=O)N[C@@H](CC(C)C)C(=O)NCC(=O)NCC(=O)N[C@H](C(=O)N[C@@H](CCCCN)C(=O)N[C@H](C(=O)N[C@@H](Cc1ccccc1)C(=O)N[C@@H](Cc1ccccc1)C(=O)N[C@@H](CCCCN)C(=O)NCC(=O)N[C@@H](C)C(=O)N[C@@H](CC(C)C)C(=O)N[C@@H](CCCCN)C(=O)N[C@@H](CCC(=O)O)C(=O)N[C@@H](CC(C)C)C(=O)N[C@@H](C)C(=O)N[C@@H](Cc1ccccc1)C(=O)N[C@H](C(=O)N[C@@H](Cc1ccc(O)cc1)C(=O)N[C@@H](CC(C)C)C(=O)N[C@@H](CCC(N)=O)C(N)=O)[C@@H](C)O)[C@@H](C)O)C(C)C [SIGAKILGGVKTFFKGALKELAFTYLQ]

MIC [12]: 27.6 µM (≈ 50 µg/mL) | MIC [14]: 3.45 µM (≈ 6.25 µg/mL) | MIC [15]: 1.73 µM (≈ 3.13 µg/mL)
Compound: CC[C@H](C)[C@H](N)C(=O)N[C@@H](CC(C)C)C(=O)N1CCC[C@H]1C(=O)N[C@@H](Cc1c[nH]c2ccccc12)C(=O)N[C@@H](CCCCN)C(=O)N[C@@H](Cc1c[nH]c2ccccc12)C(=O)N1CCC[C@H]1C(=O)N[C@@H](Cc1c[nH]c2ccccc12)C(=O)N[C@@H](CC(C)C)C(=O)N1CCC[C@H]1C(=O)N[C@@H](Cc1ccc(O)cc1)C(=O)N[C@@H](CCCN=C(N)N)C(=O)N[C@@H](CCCN=C(N)N)C(N)=O [ILPWKWPWLPYRR]

MIC [22]: 19.1 µM (≈ 24 µg/mL) | MIC [23]: 4.76 µM (≈ 6 µg/mL) | MIC [24]: 38.1 µM (≈ 48 µg/mL)
Compound: CC[C@H](C)[C@H](NC(=O)[C@H](C)NC(=O)[C@H](CC(C)C)NC(=O)[C@H](CS)NC(=O)[C@H](CC(C)C)NC(=O)[C@H](C)NC(=O)[C@H](C)NC(=O)[C@H](CS)NC(=O)[C@@H](N)CC(C)C)C(=O)NCC(=O)N[C@@H](CCCN=C(N)N)C(=O)N[C@@H](CCCN=C(N)N)C(N)=O [LCAALCLAIGRR]

MIC [25]: ≥ 32 µM | MIC [26]: 16 µM (≈ 40.4 µg/mL) | MIC [27]: 8 µM (≈ 20.2 µg/mL) | MIC [28]: 0.25 µM (≈ 0.632 µg/mL)
Compound: C[C@H](NC(=O)[C@H](C)NC(=O)[C@H](C)NC(=O)[C@H](Cc1ccc(O)cc1)NC(=O)[C@H](C)NC(=O)[C@H](C)NC(=O)[C@H](C)NC(=O)[C@H](CCCCN)NC(=O)[C@@H](N)CCCCN)C(=O)N[C@@H](C)C(=O)N[C@@H](C)C(=O)N[C@@H](Cc1ccc(O)cc1)C(=O)N[C@@H](C)C(=O)N[C@@H](C)C(=O)N[C@@H](Cc1c[nH]c2ccccc12)C(=O)N[C@@H](C)C(=O)N[C@@H](C)C(=O)N[C@@H](Cc1ccc(O)cc1)C(=O)N[C@@H](C)C(=O)N[C@@H](C)C(=O)N[C@@H](C)C(=O)N[C@@H](CCCCN)C(=O)N[C@@H](CCCCN)C(=O)N[C@@H](CCCCN)C(=O)N[C@@H](CCCCN)C(N)=O [KKAAAYAAAAAYAAWAAYAAAKKKK]

Continued, molecule first:

Compound: CC[C@H](C)[C@H](N)C(=O)N[C@@H](CCCCN)C(=O)N[C@@H](CC(C)C)C(=O)N[C@@H](CO)C(=O)N[C@@H](CCCCN)C(=O)N[C@@H](CCC(=O)O)C(=O)N[C@H](C(=O)N[C@@H](CCCCN)C(=O)N[C@@H](CCCCN)C(=O)N[C@@H](CC(N)=O)C(=O)N[C@@H](CC(C)C)C(=O)N[C@@H](CCCCN)C(=O)N[C@@H](CCCCN)C(=O)N[C@H](C(=O)N[C@@H](CC(C)C)C(=O)N[C@@H](CCCCN)C(=O)NCC(=O)N[C@@H](C)C(=O)N[C@H](C(=O)N[C@@H](CCCCN)C(=O)NCC(=O)N[C@@H](C)C(=O)N[C@H](C(=O)N[C@@H](C)C(=O)N[C@H](C(=O)N[C@@H](C)C(=O)N[C@@H](CCCCN)C(=O)N[C@@H](CCSC)C(=O)N[C@H](C(N)=O)C(C)C)C(C)C)[C@@H](C)CC)[C@@H](C)CC)C(C)C)[C@@H](C)O [IKLSKETKKNLKKVLKGAIKGAIAVAKMV]
MIC [1]: 3.1 µM (≈ 9.63 µg/mL) | MIC [2]: ≥ 100 µM | MIC [3]: 1.6 µM (≈ 4.97 µg/mL) | MIC [4]: ≥ 50 µM | MIC [5]: 1.6 µM (≈ 4.97 µg/mL) | MIC [6]: 3.1 µM (≈ 9.63 µg/mL) | MIC [7]: 6.25 µM (≈ 19.4 µg/mL) | MIC [8]: 12.5 µM (≈ 38.8 µg/mL) | MIC [9]: 3.1 µM (≈ 9.63 µg/mL) | MIC [10]: 6.25 µM (≈ 19.4 µg/mL) | MIC [11]: 6.25 µM (≈ 19.4 µg/mL)

Compound: CC[C@H](C)[C@H](N)C(=O)N[C@@H](CC(C)C)C(=O)N1CCC[C@H]1C(=O)N[C@@H](CC(C)C)C(=O)N[C@@H](CCCCN)C(=O)N[C@@H](Cc1c[nH]c2ccccc12)C(=O)N1CCC[C@H]1C(=O)N[C@@H](Cc1c[nH]c2ccccc12)C(=O)N[C@@H](Cc1c[nH]c2ccccc12)C(=O)N1CCC[C@H]1C(=O)N[C@@H](Cc1c[nH]c2ccccc12)C(=O)N[C@@H](CCCN=C(N)N)C(=O)N[C@@H](CCCN=C(N)N)C(N)=O [ILPLKWPWWPWRR]
MIC [12]: 13.6 µM (≈ 25 µg/mL) | MIC [14]: 1.71 µM (≈ 3.13 µg/mL) | MIC [15]: 1.71 µM (≈ 3.13 µg/mL)

Compound: CC[C@H](C)[C@H](NC(=O)[C@H](CC(=O)O)NC(=O)[C@H](CCCCN)NC(=O)[C@H](C)NC(=O)[C@H](C)NC(=O)CNC(=O)[C@H](CCCCN)NC(=O)[C@H](CC(C)C)NC(=O)[C@@H](NC(=O)[C@H](CC(=O)O)NC(=O)[C@@H](NC(=O)[C@@H](NC(=O)CN)C(C)C)C(C)C)[C@@H](C)CC)C(=O)N[C@@H](C)C(=O)NCC(=O)N[C@@H](Cc1cnc[nH]1)C(=O)N[C@@H](CC(C)C)C(=O)N[C@@H](C)C(=O)N[C@@H](CO)C(=O)N[C@@H](CCCCN)C(=O)N[C@H](C(=O)N[C@@H](C)C(=O)N[C@@H](CC(N)=O)C(=O)N[C@@H](CCCCN)C(=O)N[C@@H](CC(C)C)C(N)=O)C(C)C [GVVDILKGAAKDIAGHLASKVANKL]
MIC [17]: > 100 µM | MIC [7]: > 100 µM | MIC [8]: > 100 µM | MIC [19]: ≥ 100 µM | MIC [20]: ≥ 100 µM | MIC [11]: > 100 µM

Compound: CC[C@H](C)[C@H](NC(=O)[C@H](C)NC(=O)[C@H](CC(C)C)NC(=O)[C@H](CCCN=C(N)N)NC(=O)[C@H](CC(C)C)NC(=O)[C@H](C)N)C(=O)N[C@@H](CCCN=C(N)N)C(=O)N[C@@H](CCCN=C(N)N)C(=O)N[C@@H](CCCN=C(N)N)C(N)=O [ALRLAIRRR]
MIC [21]: 2.67 µM (≈ 3 µg/mL) | MIC [22]: 1.33 µM (≈ 1.5 µg/mL) | MIC [23]: 1.78 µM (≈ 2 µg/mL) | MIC [24]: > 42.7 µM

Compound: CC[C@H](C)[C@H](N)C(=O)N[C@@H](CCCCN)C(=O)N[C@@H](CC(C)C)C(=O)N[C@@H](CO)C(=O)N[C@@H](CCCCN)C(=O)N[C@@H](CCC(=O)O)C(=O)N[C@H](C(=O)N[C@@H](CCCCN)C(=O)N[C@@H](CC(=O)O)C(=O)N[C@@H](CC(N)=O)C(=O)N[C@@H](CC(C)C)C(=O)N[C@@H](CCCCN)C(=O)N[C@@H](CCCCN)C(=O)N[C@H](C(=O)N[C@@H](CC(C)C)C(=O)N[C@@H](CCCCN)C(=O)NCC(=O)N[C@@H](C)C(=O)N[C@H](C(=O)N[C@@H](CCCCN)C(=O)NCC(=O)N[C@@H](C)C(=O)N[C@H](C(=O)N[C@@H](C)C(=O)N[C@H](C(=O)N[C@@H](C)C(=O)N[C@@H](CCCCN)C(=O)N[C@@H](CCSC)C(=O)N[C@H](C(N)=O)C(C)C)C(C)C)[C@@H](C)CC)[C@@H](C)CC)C(C)C)[C@@H](C)O [IKLSKETKDNLKKVLKGAIKGAIAVAKMV]
MIC [1]: 6.25 µM (≈ 19.3 µg/mL) | MIC [2]: ≥ 100 µM | MIC [3]: 1.6 µM (≈ 4.95 µg/mL) | MIC [4]: ≥ 50 µM | MIC [5]: 1.6 µM (≈ 4.95 µg/mL) | MIC [6]: 3.1 µM (≈ 9.59 µg/mL) | MIC [7]: 6.25 µM (≈ 19.3 µg/mL) | MIC [8]: 25 µM (≈ 77.4 µg/mL) | MIC [9]: 6.25 µM (≈ 19.3 µg/mL) | MIC [10]: 12.5 µM (≈ 38.7 µg/mL) | MIC [11]: 12.5 µM (≈ 38.7 µg/mL)

From DBAASP
